# Measurements taken from patent US7495024B2, “Phenylalkyl N-hydroxyureas for combating atherosclerotic plaque” (VIA Pharmaceuticals, Inc., priority 2006, dated 2009).
# How the values were obtained:
# [1] = tested on: ApoE-deficient mice; experiment: Histopathological and quantitative assessment of plaque/lesion area in aortic root and aorta (Example 2, FIG. 3); type: in vivo; details: 28-week old ApoE-deficient mice, 28 days
# Procedure: Four week old female ApoE-deficient knockout mice were fed a high-fat diet set forth in Example 1 for a period of 24 weeks to allow atherosclerotic plaque to build-up. The 28 week old ApoE-deficient mice were then randomized to receive vehicle (0.9% sterile saline administered at 5 mL/kg or compound X administered at two different doses, 10 mg/kg and 50 mg/kg, each in a volume of 5 mL/kg (from concentrations of […] respectively) daily for 28 consecutive days. Saline vehicle and compound X were all prepared fresh daily and administered orally with a 22G gavage syringe. Doses were adjusted based on most recently obtained body weight. The following two treatment groups were tested and compared: 1) the first treatment group consisted of 20 female mice treated only with saline and 20 female mice treated with 10 mg/kg of compound X and 2) the second treatment group consisted of 20 female mice treated with vehicle and 20 female mice treated with 50 mg/kg of compound X.
# (§1) The entire treatment was carried out by administering the vehicle or the dosage to the mice once a day for 28 days. […] At terminal sacrifice, aortas were harvested from 16 mice in each of the treatment groups and grossly evaluated, selected tissue from the remaining 4 mice per group were evaluated grossly and fixed and processed for histopathological analysis and quantitative determination of plaque burden.
# For quantitative assessment of the atherosclerotic process, in FIG. 2 and FIG. 3, the aortic tree of mice was prepared and described by Tabibiazar, Wagner, et al. Physiol Genomics 22(2): 213-226 (2005). The amount of plaque/lesion area in the aortic root, as well as the entire aorta, was measured. Percent lesion areas were calculated as a total lesion area divided by the total surface area. […]
# For the quantitative assessment of the atherosclerotic process in FIG. 3, the amount of plaque/lesion area in the aortic root as well as the entire aorta was measured. Percent lesion area was calculated at total lesion area divided by total surface area.
# [2] = tested on: ApoE-deficient mice; experiment: Gross pathological evaluation of aortas with developed atherosclerotic plaque (Example 2, FIG. 2); type: in vivo; details: 28-week old ApoE-deficient mice, 28 days
# Source text: In Examples 1 and 2 knockout mice deficient in producing the protein Apolipoprotein E [apoE] were used. ApoE-deficient mice are known to spontaneously develop atherosclerotic plaque at 12-16 weeks, which process is accelerated by feeding the mice a high fat diet. Because the atherosclerotic lesions found in these mice are histologically similar to those found in humans, the ApoE-deficient mice are used as a model for assessing the effects of a drug on atherosclerotic plaque in humans.
# Four week old female ApoE-deficient knockout mice were fed a high-fat diet set forth in Example 1 for a period of 24 weeks to allow atherosclerotic plaque to build-up. […]
# as §1, with “burden. […]” for “burden.”
# [3] = tested on: patients suffering from Acute Coronary Syndrome (ACS); experiment: Randomized, double blind, placebo-controlled study in patients with Acute Coronary Syndrome: biomarkers and MDCT (Example 3); type: in vivo, human; details: 25, 50 or 100 mg per day oral
# Procedure: In this study the plaque levels were determined by use of Multidetector (64 slice coronary) Computerized Tomography (MDCT) scan indicative of such plaque in male and female patients suffering from Acute Coronary Syndrome (ACS). The efficacy of this treatment in reducing the effects of cardiovascular disease was determined by the use of biomarkers for this disease. […] At the end of the twenty-four week period the plaque in the patients is analyzed using the Multidetector (64 slice coronary) Computerized Tomography (MDCT) scan. […] Thus, the groups take the following matching capsules at each daily administration of the study medication: • Placebo: two placebo capsules • 25 mg dose: one placebo capsule plus one 25 mg capsule • 50 mg dose: 1 placebo capsule plus one 50 mg capsule • 100 mg dose: two 50 mg capsules The following baseline assessments in each of the patients are made prior to the study: history and complete physical examination; focused physical exam (for signs of bleeding disorder); 12-Lead ECG; measurement of inflammatory biomarkers (LTB4 (ex vivo) measured at trough; LTE4 urine; hsCRP; MPO; MCP1 (CCL2); M-CSF (CSF-1); MIP-2 (Cxcl2); osteopontin (Spp1)); hematology; chemistries; urinalysis; serum pregnancy test for women of childbearing potential; and 64-slice coronary MDCT imaging with contrast. […]
compound,measurement,setting,value
"CC(C#Cc1ccc(Cc2ccc(F)cc2)s1)N(O)C(N)=O (stereo not shown) [compound X, N-[3-[5-[(4-fluorophenyl)methyl]-2-thienyl]-1-methyl-2-propynyl]-N-hydroxyurea]",atherosclerotic plaque formation in the aortic root (histopathological evaluation),"[1]; 10 mg/kg (p<0.07) and 50 mg/kg (p<0.001) oral, vs vehicle",dose dependent reduction of atherosclerotic plaque formation
same,reduction in mean lesion area compared to vehicle,"[1]; 50 mg/kg oral, statistically significant",approximately 45%
same,percent plaque lesion area in the aortas,"[1]; 10 and 50 mg/kg/day oral, vs vehicle, dose dependent",marked reduction of percent plaque lesion area
same,"atherosclerotic lesions in the proximal aorta, aortic arch, thoracic and abdominal aorta (gross pathological score)","[2]; 10 mg/kg/day or 50 mg/kg/day oral, vs vehicle",substantial reduction of atherosclerotic lesions
same,plaque burden in the proximal aorta and aortic arch compared to vehicle,[2]; 10 and 50 mg/kg/day oral,statistically significant reductions in plaque burden
same,"levels of inflammatory biomarkers for cardiovascular disease, percentage of patients vs placebo group",[3]; 12 weeks of dosing,decrease in the levels of inflammatory biomarkers
same,"density and/or plaque volume of coronary noncalcified plaque index lesions by 64-slice MDCT, percentage of patients vs placebo group",[3]; 24 weeks of dosing,a change in the density and/or plaque volume
